Data set [1] concerns d-U937 cells. The experiment in a line: Cell viability: MTT assay. It is filed as cell-based, human. Conditions: 1 μg/mL. Summed up: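 Differentiated U937 cells exposed to compound at 1 or 10 μg/mL, either 4 h in 5% FCS or 24 h in 10% FCS RPMI1640. MTT then added for 1 h, formazan dissolved in DMSO and read at 550 nm. Viability loss given as % versus 0.5% DMSO vehicle; apparent gains appear negative.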
For orientation: Tetrazolium assays rely on reduction of a dye to a coloured formazan, in cell work by metabolically active cells.

Data set [2] concerns IL-2 release, PBMCs. The experiment in a line: IL-2 release in CD3/CD28 stimulated PBMC cells. In kind it is cell-based. Conditions: Homo sapiens, read-out: IC50 Values for Inhibition of Cytokine Release, PBMCs, IL-2.
The test system of data set [3] is IL-8 release, PBMCs. Put plainly: LPS-induced IL-8 release in PBMC cells. In kind it is cell-based. Particulars: Homo sapiens, LPS stimulated, read-out: IC50 Values for Inhibition of Cytokine Release, PBMCs, IL-8. An outline of the steps: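 PBMCs from healthy donors pretreated with compound for 2 h, then stimulated with 1 ng/ml LPS (E. coli 0111:B4) for 24 h at 37 °C, 5% CO2. Supernatant IL-8 and TNFα measured by sandwich ELISA with fluorescence read-out.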

Data set [4] deals with T1, GSK3α (Homo sapiens, UniProt P49840). The experiment in a line: GSK 3α enzyme inhibition (FRET), Method 1. Conditions: Table 4a1. It is filed as biochemical. Summed up:
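Inhibition is scored from phosphorylation of a dual-labelled synthetic peptide, measured by FRET after protease cleavage of unphosphorylated substrate. Incubations are 2 hr compound with enzyme, then 1 hr kinase reaction.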

In data set [5] the target is T1, GSK3α. Put plainly: GSK 3α enzyme inhibition (FRET), Method 2. Conditions: Table 4a2, different laboratory. In kind it is biochemical.
Data set [6] relates to IL-8 release, HT29 cells. Put plainly: IL-1β-induced IL-8 release in HT29 cells. In kind it is cell-based. Particulars: Homo sapiens, HT-29; IL-1β stimulated; read-out: IC50 Values for Inhibition of Cytokine Release, HT29 cells, IL-8. The procedure:
(d) IL-1β-Induced IL-8 Release in HT29 Cells
HT29 cells, a human colon adenocarcinoma cell line, are plated in a 96 well plate (24 hrs) and pre-treated with compounds at the desired concentration for 2 hours before addition of 5 ng/ml of IL-1β (Abeam) for 24 hours, Supernatants are harvested for IL-8 quantification by Sandwich ELISA (Duo-set, R&D System). The IC50 is determined from the dose response curve.

Data set [7] deals with IFN gamma release, PBMCs. The experiment in a line: IFN gamma release in CD3/CD28 stimulated PBMC cells. In kind it is cell-based. Conditions: Homo sapiens, read-out: IC50 Values for Inhibition of Cytokine Release, PBMCs, IFNγ.

The record followed here is US20140057915A1, “KINASE INHIBITORS” (TOPIVERT PHARMA LIMITED, priority 2012, published 2014).

Broadly, the IC50 is the concentration that inhibits the measured activity by half.

T1 sequence (P49840 whole entry): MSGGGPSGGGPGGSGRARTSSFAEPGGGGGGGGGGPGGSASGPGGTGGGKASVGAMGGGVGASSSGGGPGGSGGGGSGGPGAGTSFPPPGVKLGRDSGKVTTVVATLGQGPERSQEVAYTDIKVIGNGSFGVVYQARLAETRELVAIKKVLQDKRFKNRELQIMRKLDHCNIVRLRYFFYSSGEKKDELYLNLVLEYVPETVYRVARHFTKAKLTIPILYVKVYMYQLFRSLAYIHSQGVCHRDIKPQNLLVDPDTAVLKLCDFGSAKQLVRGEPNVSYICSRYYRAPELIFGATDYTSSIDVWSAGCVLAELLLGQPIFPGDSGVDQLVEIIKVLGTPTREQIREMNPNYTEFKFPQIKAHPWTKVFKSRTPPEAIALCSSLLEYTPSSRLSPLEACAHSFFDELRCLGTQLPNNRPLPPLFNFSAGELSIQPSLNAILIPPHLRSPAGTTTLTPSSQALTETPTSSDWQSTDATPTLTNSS

For `Cc1ccc(-n2nc(C(C)C)cc2NC(=O)Nc2ccc(Oc3ccnc(Nc4cc(C(=O)NCCN5CCOCC5)cc(C(F)(F)F)c4)n3)c3ccccc23)cc1` [Example 7, 3-((4-((4-(3-(3-isopropyl-1-(p-tolyl)-1H-pyrazol-5-yl)ureido)naphthalen-1-yl)oxy)pyrimidin-2-yl)amino)-N-(2-morpholinoethyl)-5-(trifluoromethyl)benzamide], in data set [1], the “Cell viability at time point in d-U937 cells, 4 h” value was “−ve (−ve and +ve indicate that the value is below and above respectively, the no significant effect threshold, defined as 30% inhibition at 1 μg/mL at the time point indicated)”. The “Cell viability at time point in d-U937 cells, 24 h” value (from here on “Cell viability at time point … 24 h”) in data set [1] is “−ve (−ve and +ve indicate that the value is below and above respectively, the no significant effect threshold, defined as 30% inhibition at 1 μg/mL at the time point indicated)”. Besides, the IC50 in data set [2] is 260 nM; in data set [3], 2.4 nM; in data set [4], > 12600 nM; in data set [5], 12100 nM.
For the molecule `COc1cc(Nc2nccc(Oc3ccc(NC(=O)Nc4cc(C(C)C)nn4-c4ccc(C)cc4)c4ccccc34)n2)cc(C(=O)NCCN2CCOCC2)c1` [Example 8, 3-((4-((4-(3-(3-Isopropyl-1-(p-tolyl)-1H-pyrazol-5-yl)ureido)naphthalen-1-yl)oxy)pyrimidin-2-yl)amino)-5-methoxy-N-(2-morpholinoethyl)benzamide], the concentration for half-maximal inhibition (IC50) in data set [6] is 4.1 nM; in data set [2], 35.3 nM; in data set [3], 1.8 nM; in data set [4], 7950 nM; in data set [5] it was ≥ 13200 nM. Also, in data set [1], the “Cell viability at time point in d-U937 cells, 4 h” value is “−ve (−ve and +ve indicate that the value is below and above respectively, the no significant effect threshold, defined as 30% inhibition at 1 μg/mL at the time point indicated)”. Moreover, the “Cell viability at time point … 24 h” value in data set [1] was “−ve (−ve and +ve indicate that the value is below and above respectively, the no significant effect threshold, defined as 30% inhibition at 1 μg/mL at the time point indicated)”.
With `COc1cc(Nc2nccc(Oc3ccc(NC(=O)Nc4cc(C(F)(F)C(F)(F)F)nn4-c4ccc(C)cc4)c4ccccc34)n2)cc(C(=O)NCCN2CCOCC2)c1` [Example 9], the IC50 is 7.3 nM in data set [7]; 132 nM in data set [2]; 2.3 nM in data set [3]; 8030 nM in data set [4]; 6510 nM in data set [5]. Moreover, in data set [1], the “Cell viability at time point in d-U937 cells, 4 h” value was “−ve (−ve and +ve indicate that the value is below and above respectively, the no significant effect threshold, defined as 30% inhibition at 1 μg/mL at the time point indicated)”. The “Cell viability at time point … 24 h” value in data set [1] is “−ve (−ve and +ve indicate that the value is below and above respectively, the no significant effect threshold, defined as 30% inhibition at 1 μg/mL at the time point indicated)”.
On to `COCCNC(=O)c1cc(Nc2nccc(Oc3ccc(NC(=O)Nc4cc(C(C)C)nn4-c4ccc(OC)cc4)c4ccccc34)n2)cc(OC)c1` [Example 11, 3-((4-((4-(3-(3-Isopropyl-1-(4-methoxyphenyl)-1H-pyrazol-5-yl)ureido)naphthalen-1-yl)oxy)pyrimidin-2-yl)amino)-5-methoxy-N-(2-methoxyethyl)benzamide], for which, in data set [1], the “Cell viability at time point in d-U937 cells, 4 h” value is “−ve (−ve and +ve indicate that the value is below and above respectively, the no significant effect threshold, defined as 30% inhibition at 1 μg/mL at the time point indicated)”. For the same molecule, the “Cell viability at time point … 24 h” value in data set [1] was “−ve (−ve and +ve indicate that the value is below and above respectively, the no significant effect threshold, defined as 30% inhibition at 1 μg/mL at the time point indicated)”. The IC50 in data set [2] is 27.5 nM; in data set [3], 3 nM; in data set [4], > 14000 nM; in data set [5], 9950 nM.
Take `COc1ccc(-n2nc(C3(C)COC3)cc2NC(=O)Nc2ccc(Oc3ccnc(Nc4cccc(C(=O)NCCN5CCOCC5)c4)n3)c3ccccc23)cc1` [Example 23, 3-((4-((4-(3-(1-(4-methoxyphenyl)-3-(3-methyloxetan-3-yl)-1H-pyrazol-5-yl)ureido)naphthalen-1-yl)oxy)pyrimidin-2-yl)amino)-N-(2-morpholinoethyl)benzamide]: in data set [1], the “Cell viability at time point in d-U937 cells, 4 h” value is “−ve (−ve and +ve indicate that the value is below and above respectively, the no significant effect threshold, defined as 30% inhibition at 1 μg/mL at the time point indicated)”; the “Cell viability at time point … 24 h” value was “−ve (−ve and +ve indicate that the value is below and above respectively, the no significant effect threshold, defined as 30% inhibition at 1 μg/mL at the time point indicated)”. This molecule returned an IC50 in data set [4] of 2990 nM.
Regarding `COc1ccc(-n2nc(C(C)(C)C)cc2NC(=O)Nc2ccc(Oc3ccnc(Nc4cc(Br)cc(C(N)=O)c4)n3)c3ccccc23)cc1` [Example 42, 3-bromo-5-((4-((4-(3-(3-(tert-butyl)-1-(4-methoxyphenyl)-1H-pyrazol-5-yl)ureido)naphthalen-1-yl)oxy)pyrimidin-2-yl)amino)benzamide], in data set [1], the “Cell viability at time point in d-U937 cells, 4 h” value was “−ve (−ve and +ve indicate that the value is below and above respectively, the no significant effect threshold, defined as 30% inhibition at 1 μg/mL at the time point indicated)”; the “Cell viability at time point … 24 h” value was “−ve (−ve and +ve indicate that the value is below and above respectively, the no significant effect threshold, defined as 30% inhibition at 1 μg/mL at the time point indicated)”. For the same molecule, the IC50 in data set [4] was > 1390 nM.
Take `COc1cc(Nc2nccc(Oc3ccc(NC(=O)Nc4cc(C5CC5)nn4-c4ccc(C)cc4)c4ccccc34)n2)cc(C(=O)NCCN2CCOCC2)c1` [Example 50, 3-((4-((4-(3-(3-cyclopropyl-1-(p-tolyl)-1H-pyrazol-5-yl)ureido)naphthalen-1-yl)oxy)pyrimidin-2-yl)amino)-5-methoxy-N-(2-morpholinoethyl)benzamide]: the “Cell viability at time point in d-U937 cells, 4 h” value in data set [1] is “−ve (−ve and +ve indicate that the value is below and above respectively, the no significant effect threshold, defined as 30% inhibition at 1 μg/mL at the time point indicated)”. In addition, the “Cell viability at time point … 24 h” value in data set [1] was “−ve (−ve and +ve indicate that the value is below and above respectively, the no significant effect threshold, defined as 30% inhibition at 1 μg/mL at the time point indicated)”. Besides, the results for the IC50 in data set [3], in data set [4] and in data set [5] were 7.3 nM, > 13300 nM and ≥ 13300 nM, respectively.
With `COc1cc(Nc2nccc(Oc3ccc(NC(=O)Nc4cc(C5(C)CC5)nn4-c4ccc(C)cc4)c4ccccc34)n2)cc(C(=O)NCCN2CCOCC2)c1` [Example 51, 3-methoxy-5-((4-((4-(3-(3-(1-methylcyclopropyl)-1-(p-tolyl)-1H-pyrazol-5-yl)ureido)naphthalen-1-yl)oxy)pyrimidin-2-yl)amino)-N-(2-morpholinoethyl)benzamide], in data set [1], the “Cell viability at time point in d-U937 cells, 4 h” value is “−ve (−ve and +ve indicate that the value is below and above respectively, the no significant effect threshold, defined as 30% inhibition at 1 μg/mL at the time point indicated)”; the “Cell viability at time point … 24 h” value was “−ve (−ve and +ve indicate that the value is below and above respectively, the no significant effect threshold, defined as 30% inhibition at 1 μg/mL at the time point indicated)”. The IC50 in data set [4] was > 13000 nM.
Regarding `COc1ccc(-n2nc(C(C)C)cc2NC(=O)Nc2ccc(Oc3ccnc(Nc4cc(OC)cc(C(=O)NCCN5CCOCC5)c4)n3)c3ccccc23)cc1` [Example 53, 3-((4-((4-(3-(3-isopropyl-1-(4-methoxyphenyl)-1H-pyrazol-5-yl)ureido)naphthalen-1-yl)oxy)pyrimidin-2-yl)amino)-5-methoxy-N-(2-morpholinoethyl)benzamide], the “Cell viability at time point in d-U937 cells, 4 h” value in data set [1] is “−ve (−ve and +ve indicate that the value is below and above respectively, the no significant effect threshold, defined as 30% inhibition at 1 μg/mL at the time point indicated)”. The “Cell viability at time point … 24 h” value in data set [1] is “−ve (−ve and +ve indicate that the value is below and above respectively, the no significant effect threshold, defined as 30% inhibition at 1 μg/mL at the time point indicated)”. Also, the IC50 is 44.1 nM in data set [2], 3.1 nM in data set [3], > 13000 nM in data set [4] and 7260 nM in data set [5].
